What was measured:
C2C12 myotubes = details: cited from earlier work
[1] = after HMB is fed; cited from earlier work
[2] = Study 2: plasma HMB and urinary HMB excretion over 24 h; assay type: in vivo, human
Description: Human subjects. In study 1, four male and four female college-aged subjects were studied. In study 2, an additional four male and four female college-aged subjects were studied. The protocols for both studies were approved by the Iowa State University IRB and each subject gave informed consent to participate in the study. Due to the nature of the treatments, neither the subjects nor the researchers could be blinded.
Treatments. The same treatments were given to the subjects in both study groups. The three treatments were given in random order to each subject with at least a one week washout period between treatments. The treatments were supplied by Metabolic Technologies, Inc. (MTI, Ames, Iowa) and were prepared with food grade ingredients. One gram of CaHMB or the equivalent HMB in free acid in a gel form was administered to the subjects. The CaHMB capsules were obtained from a commercial supplement manufacturer (Optimum Nutrition, Aurora, Ill.) while the HMB-acid gel was prepared at MTI laboratories. Briefly, the HMB-acid was adjusted to a pH 4.5 with potassium carbonate (K2CO3) and flavors and sweeteners were then added. The 1.0 g CaHMB capsule was taken with 355 mL of water (approx. 12 oz.). The free acid gel dosage was 0.80 g and was equivalent to the free acid contained in the CaHMB in the capsule. The free acid gel treatments were either swallowed (FASW) or held sublingual for 15 seconds and then swallowed (FASL). FASW consisted of expelling the entire dose into the mouth in a 3 ml syringe, swallowing, and then following this with 355 mL of water. FASL subjects were instructed to place the entire dosage under the tongue and hold the dosage for 15 sec before swallowing. They then rinsed and followed the dose with 355 mL of water.
Study 2 design. Study 2 was conducted similar to study 1 with the following modifications. In study 2, plasma levels of HMB were measured for 1440 min (24 h) and total urine collection was also performed for measurement of urinary HMB excretion during this period. After the 180 min blood sample, the subjects were allowed to leave the laboratory and were instructed to return to the laboratory for additional blood samples at 360, 720, and 1440 min after the ingestion of the supplement. As in study 1, each subject took each of the treatments with at least a one week washout period between treatments. Samples were again stored frozen at −70° C. for analysis of plasma and urinary HMB concentrations. Pre-ingestion, 180 min and 1440 min blood samples were again assayed for the same measurements already for study 1. Subjects were provided with a standardized lunch after the 180 min blood sampling and instructed to eat this at approximately 240 min post ingestion. Following the 720 min blood sample, subjects were instructed to eat a normal evening meal before 10 pm. Subjects reported back to the laboratory the following morning for the fasted 1440 min blood sample. A urine collection container was provided and subjects collected all urine produced during the experimental 24 h experimental period. The urine was stored refrigerated when not being collected. Urine volumes were measured and samples of the total urine collection were taken and stored frozen at −70° C. until analyzed for HMB.
HMB analysis. Plasma and urine HMB were analyzed by gas chromatography/mass spectrometry (GC/MS) as previously described.(27)
Calculations and statistics. Areas under the curves were calculated for each subject using the trapezoidal method that sums the area above baseline.(51) Half-life of plasma HMB was calculated for study 2. The following equations were used:
k=(ln(Cpeak)−ln(Ctrough))/Tinterval
Peak plasma concentrations for each subject were used for Cpeak. […] Tpeak was the time at which Cpeak was measured and Tinterval is the time from Tpeak until the time at Ctrough (720 min). The extracellular fluid compartment was assumed to be 20% of body weight and calculated using equation 3 below(1). […]

muscle damage = assay: Serum CPK after an acute eccentric exercise bout; assay type: in vivo, human; details: pre- and post exercise dosing (Treatment 5)
Protocol: (§1) Subjects: We conducted a study at the Iowa State University Health and Human Performance Laboratory; this study was approved by the Iowa State University Institutional Review Board, and was registered at ClinicalTrials.gov (NCT01150526). We recruited 12 men and 13 women between the ages of 20 and 36 from the Iowa State University community and surrounding area.
(§2) Treatments: The experimental design is depicted in FIG. 8.
Five treatments were administered as follows: Treatment 1: Placebo. This group received a placebo capsule and a placebo syringe dosage at each dosage administration. Treatment 2: CaHMB pre-exercise. […]
Serum and Urine Samples: A fasting blood sample was taken from a superficial forearm vein each morning when the subjects reported to the laboratory for testing. […] Serum CPK was analyzed by a commercial laboratory (Quest Diagnostics, Madison N.J.). Urine 3-Methylhistidine (3MH) was analyzed by a previously published GC/MS method (9). Urinary creatinine was analyzed by colorimetric assay (Cayman Chemical Company, Ann Arbor, Mich.). The urinary 3MH data was normalized to urinary creatinine and expressed as 3MH:creatinine ratio, μmol:mg.
(§3) Statistics: Data were analyzed using the mixed model procedure in Statistical Analysis System for Windows (Release 9.1.3, SAS Institute, Cary, N.C.). […]

[3] = test system: protein degradation in muscle; assay: Urinary 3-methylhistidine to creatinine ratio after an acute exercise bout; assay type: in vivo, human
Protocol: as §1, §2
Five treatments were administered as follows: Treatment 1: Placebo. This group received a placebo capsule and a placebo syringe dosage at each dosage administration. Treatment 2: CaHMB pre-exercise. This group received a CaHMB capsule and a placebo syringe dosage 30 min prior to the acute exercise bout. The remaining additional dosages during the study consisted of one placebo capsule and one placebo syringe dosage. Treatment 3: HMB-acid gel pre-exercise. This group received a placebo capsule and a syringe dosage of HMB-acid gel 30 min prior to the acute exercise bout. The remaining additional dosages during the study consisted of one placebo capsule and one placebo syringe dosage. Treatment 4: CaHMB pre- and post-exercise. This group received a CaHMB capsule and a placebo syringe dosage at all administration times during the study. Treatment 5: HMB-acid gel pre- and post-exercise. This group received a syringe dosage of HMB-acid gel and one placebo capsule at all administration times during the study.
To blind the treatments to both the researchers and subjects, each subject took a capsule and syringe dosage of supplement at each administration. The capsules contained either one gram of calcium lactate (Placebo) or one gram of calcium β-hydroxy-β-methylbutryate (CaHMB). The syringe dosages were formulated to be similar in taste and appearance and contained either 0.8 g of corn syrup (Placebo) or 0.8 g of β-hydroxy-β-methylbutryate free acid, the same amount of HMB as in the capsule dosage. The 3 daily doses provided the same total HMB dosage (2.4 g as calcium HMB in the capsules or 2.4 g as HMB free acid in the syringes).
Eccentric Exercise Bout: Subjects refrained from vigorous exercise for three days before reporting to the laboratory. All subjects were studied after an overnight fast. […] Subjects then consumed their assigned supplement and 30 minutes later the eccentric exercise session was performed. The exercise consisted of 50 maximal effort contractions of knee extensors while attempting to resist the Biodex lever arm as it moves the knee joint from full extension to 90 degrees flexion; this is similar to letting a heavy weight down slowly while in a seated position. Each contraction lasted about 2 seconds and 12 seconds were allowed between contractions. This protocol was performed on the right leg followed by the left leg. The subjects received 2 more daily dosages of treatment (placebo or HMB) with instructions to take the dosages at lunch and dinner. For the next 4 days the subjects returned to the laboratory fasted each morning, had blood taken and urine collected and then consumed the morning dosage of their supplement. The subjects were again given the 2 remaining daily supplement dosages with instructions to take them at lunch and dinner.
Serum and Urine Samples: A fasting blood sample was taken from a superficial forearm vein each morning when the subjects reported to the laboratory for testing. Additionally a clean catch urine sample was collected at this time. Serum CPK was analyzed by a commercial laboratory (Quest Diagnostics, Madison N.J.). Urine 3-Methylhistidine (3MH) was analyzed by a previously published GC/MS method (9). Urinary creatinine was analyzed by colorimetric assay (Cayman Chemical Company, Ann Arbor, Mich.). The urinary 3MH data was normalized to urinary creatinine and expressed as 3MH:creatinine ratio, μmol:mg.
as §3

CC(C)(O)CC(=O)O [HMB, β-Hydroxy-β-methylbutyrate]
phosphorylation of 4EBP1Thr65/70 (C2C12 myotubes): +51%
phosphorylation of AKTSer473 (C2C12 myotubes): +129%
phosphorylation of S6K1Thr389 (C2C12 myotubes): +50%
AKT phosphorylation (C2C12 myotubes; incubation with rapamycin): +188%
loss of HMB to urine [1]: 20-50%

CC(C)(O)CC(=O)O [HMB-acid gel, β-hydroxy-β-methylbutryate free acid]
increase in HMB plasma clearance compared with CaHMB ([2]; Study 2): 25%
AUC greater than for CaHMB capsules ([2]; Study 2, over 24 hours, listed as free acid gel): +14.8%
estimated amount of HMB retained greater than CaHMB ([2]; based upon plasma clearance): 25%
peak plasma level earlier than with CaHMB ([2]; free acid versus CaHMB): ~90 min
plasma level relative to oral CaHMB ([2]; peak levels): ~2 fold
blunting of the exercise-induced increase in serum CPK (muscle damage; 24 h post exercise, P<0.03): up to 64%
blunting of the exercise-induced increase in serum CPK (muscle damage; 48 h post exercise, P<0.005): 86%
3MH:Cr ([3]; Baseline, dosed pre- and post exercise (Treatments 4, 5)): 0.225 ± 0.034 µmol/mg
3MH:Cr ([3]; Baseline, dosed pre-exercise only (Treatments 2, 3)): 0.173 ± 0.028 µmol/mg
3MH:Cr ([3]; at 24 h, dosed pre- and post exercise (Treatments 4, 5)): 0.213 ± 0.025 µmol/mg
3MH:Cr ([3]; at 24 h, dosed pre-exercise only (Treatments 2, 3)): 0.213 ± 0.037 µmol/mg
3MH:Cr ([3]; at 48 h, dosed pre- and post exercise (Treatments 4, 5)): 0.208 ± 0.012 µmol/mg
3MH:Cr ([3]; at 48 h, dosed pre-exercise only (Treatments 2, 3)): 0.190 ± 0.014 µmol/mg
3MH:Cr ([3]; at 72 h, dosed pre- and post exercise (Treatments 4, 5)): 0.175 ± 0.013 µmol/mg
3MH:Cr ([3]; at 72 h, dosed pre-exercise only (Treatments 2, 3)): 0.172 ± 0.013 µmol/mg
3MH:Cr ([3]; at 96 h, dosed pre- and post exercise (Treatments 4, 5)): 0.186 ± 0.043 µmol/mg
3MH:Cr ([3]; at 96 h, dosed pre-exercise only (Treatments 2, 3)): 0.202 ± 0.020 µmol/mg
protein degradation (3MH:Cr ratio), trend ([3]; pre- and post exercise dosing): no increase and even a decrease in protein degradation

CC(C)C[C@H](N)C(=O)O [leucine]
phosphorylation of S6K1Thr389 (C2C12 myotubes): +17%

Source: patent US20210113501A1, “METHOD OF ADMINISTERING BETA-HYDROXY-BETA-METHYLBUTYRATE (HMB)” (Metabolic Technologies, Inc., priority 2009, published 2021)
